Values belong to the substance of their own block, whether it stands above or below them.
Key:
[1] = system: GFP-14-3-3β and its binding proteins; experiment: GFP-14-3-3β co-IP with LC-MS/MS label-free quantification, untreated versus PP1c-treated; design: species or system human
Protocol: (§1) HeLa Kyoto cells expressing transiently transfected pEGFP(C1)-14-3-3β or pEGFP(C1) control plasmid, were incubated with 20 nM Calyculin A (# 9902 S, Cell Signaling Technology) for 12 min. Cells were washed twice on ice with cold PBS and after addition of 500 µL lysis buffer (100 mM NaCl, 10 mM Tris, 0.1% IGEPAL, 1 mM EDTA, 1 mM EGTA, 20 nM Calyculin A, 1x cOmplete Mini protease inhibitor cocktail (Sigma), 1 mM DTT, 1 mM MnCl2) cells were scraped from plates, lysed by 10 pushes through an injection needle (21 G, BD) and the insoluble fraction was pelleted by centrifugation (10 min, 10^4 rcf, 4 °C). Supernatants were then subjected to incubation with 1 µM recombinant phosphatase or buffer for 1 h at 30 °C. Next, we subjected samples to immunoprecipitation using α-GFP nanobodies covalently coupled to agarose beads (2 h, 4 °C, obtained from the EMBL PEPcore Core Facility). Beads were then washed three times with lysis buffer and samples were eluted in 1x LDS sample buffer (Thermo Fisher Scientific) by heating to 70 °C for 10 min.
(§2) The samples were then reduced with 25 mM dithiothreitol (10 min at 70 °C) and alkylated with 55 mM chloroacetamide (room temperature, 30 min, in the dark). Proteins were run on a precast 4–12% NuPAGE gel (ThermoFisher Scientific) for about 1 cm to concentrate the sample prior to in-gel tryptic digestion, which was performed according to the standard procedures. The peptides obtained were dried to completeness and resuspended in 12 µL of buffer A (0.1% FA), and 5 µL of sample were injected per MS measurement. The experiment was carried out in three independent replicates.
(§3) The samples were analyzed by LC-MS/MS on a Dionex Ultimate 3000 nano-HPLC coupled online to a Fusion Lumos Tribrid mass spectrometer (Thermo Fisher Scientific). Peptides were delivered to a trap column (75 µm × 2 cm, packed in-house with 5 µm C18 resin; Reprosil PUR AQ, Dr. Maisch) and washed using 0.1% FA at a flow rate of 5 µL/min for 10 min. Subsequently, peptides were transferred to an analytical column (75 µm × 45 cm, packed in-house with 3 µm C18 resin; Reprosil Gold) applying a flow rate of 300 nL/min and separated using a 60 min linear gradient from 4% to 32% LC solvent B (0.1% FA, 5% DMSO in ACN) in LC solvent A (0.1% FA in 5% DMSO). The eluate from the analytical column was sprayed via a stainless steel emitter (Thermo Fisher Scientific) at a source voltage of 2.1 kV into the mass spectrometer. The transfer capillary was heated to 275 °C. The Fusion Lumos was operated in positive ionization mode and data-dependent acquisition (DDA), automatically switching between MS1 and MS2 spectrum acquisition. Full scan MS1 spectra were recorded in the Orbitrap from 360 to 1300 m/z at a resolution of 60k (automatic gain control (AGC) target value of 4e5 charges, maximum injection time (maxIT) of 50 ms). Up to 20 peptide precursors were isolated (isolation window, 1.7 m/z; maximum injection time, 25 ms; and AGC value, 1e5), fragmented by high-energy collision-induced dissociation (HCD) using 30% normalized collision energy (NCE), and analyzed at a resolution of 15k in the Orbitrap. Precursor ions that were singly charged, unassigned, or with charge states >6+ were excluded. The dynamic exclusion duration of fragmented precursor ions was 20 s.
(§4) Peptide and protein identification and LFQ were performed using MaxQuant software (version 1.6.1.0)[64] by searching the data against all canonical protein sequences as annotated in the Swissprot reference database (human proteins only, 20193 entries, downloaded 22 March 2016, internally annotated with PFAM domains) using the embedded search engine Andromeda[65]. The MaxQuant search was performed using two variable modifications; oxidation of methionine and N-terminal protein acetylation. Carbamidomethylation on cysteines was specified as a fixed modification. Trypsin (Trypsin/P) was specified as the proteolytic enzyme with up to two allowed missed cleavage sites.

GFP-14-3-3β = GFP-14-3-3β co-IP with LC-MS/MS, untreated GFP-14-3-3β versus GFP control (14-3-3 interactome); format: binding, human
Protocol: as §1, §2, §3, §4

[2] = pairwise comparison PP1 vs untreated, student's t-test, 3 replicates each, LC-MS/MS label-free quantification
[3] = pairwise comparison untreated GFP-14-3-3β vs GFP, student's t-test, 3 replicates each, LC-MS/MS label-free quantification
[4] = PP1 vs untreated, LFQ intensities, 3 replicates each
[5] = untreated vs GFP, LFQ intensities, 3 replicates each
[6] = log2 difference, pairwise comparison PP1 vs untreated, label-free quantification, 3 replicates each
[7] = log2 difference, pairwise comparison untreated vs GFP, label-free quantification, 3 replicates each
[8] = pairwise comparison PP1 vs untreated
[9] = pairwise comparison untreated vs GFP
[10] = PP1 vs untreated, LFQ intensities, replicates 1-3
[11] = untreated vs GFP, LFQ intensities, replicates 1-3
[12] = GFP-14-3-3β co-IP LC-MS/MS, PP1 vs untreated, student's t-test, label-free quantification, 3 replicates each
[13] = GFP-14-3-3β co-IP LC-MS/MS, untreated vs GFP, student's t-test, label-free quantification, 3 replicates each

Substance: WDR62
Difference (log2), PP1 vs untreated [1, 2]: -3.602 log2
Difference (log2), untreated vs GFP (GFP-14-3-3β; [3]): 4.129 log2

Substance: EPPK1
Difference (log2), PP1 vs untreated [1, 8]: 0.1139 log2
Difference (log2), untreated vs GFP (GFP-14-3-3β; [9]): 0.5175 log2

Substance: MTCL1
Difference (log2), PP1 vs untreated [1, 8]: 0.08295 log2
Difference (log2), untreated vs GFP (GFP-14-3-3β; [9]): 0.986 log2

Substance: RAD50
Difference (log2), PP1 vs untreated [1, 12]: -0.3723 log2
Difference (log2), untreated vs GFP (GFP-14-3-3β; [13]): 0.4724 log2

Substance: TUBB4B
Difference (log2), PP1 vs untreated [1, 12]: -0.5591 log2
Difference (log2), untreated vs GFP (GFP-14-3-3β; [13]): -0.8458 log2

Substance: MYH9
Difference (log2), PP1 vs untreated [1, 2]: -2.032 log2
Difference (log2), untreated vs GFP (GFP-14-3-3β; [3]): 0.3664 log2

Substance: CD44
Difference (log2), PP1 vs untreated [1, 2]: -2.392 log2
Difference (log2), untreated vs GFP (GFP-14-3-3β; [3]): 0.8931 log2

Substance: GEMIN5
Difference (log2), PP1 vs untreated [1, 6]: 1.609
Difference (log2), untreated vs GFP (GFP-14-3-3β; [7]): -0.2087

Substance: HSPB1
Difference (log2), PP1 vs untreated [1, 12]: -0.1455 log2
Difference (log2), untreated vs GFP (GFP-14-3-3β; [13]): 0.3674 log2

Substance: GNG12
Difference (log2), PP1 vs untreated [1, 10]: -1.974 log2
Difference (log2), untreated vs GFP (GFP-14-3-3β; [11]): -0.9148 log2

Substance: NAV1
Difference (log2), PP1 vs untreated [1, 8]: -0.101 log2
Difference (log2), untreated vs GFP (GFP-14-3-3β; [9]): 1.95 log2

Substance: DTX3L
Difference (log2), PP1 vs untreated [1, 8]: -0.03751 log2
Difference (log2), untreated vs GFP (GFP-14-3-3β; [9]): 0.3421 log2

Substance: AGO2
Difference (log2), PP1 vs untreated ([1]; PP1 vs untreated, label-free quantification): 0.7956 log2
Difference (log2), untreated vs GFP (GFP-14-3-3β; untreated vs GFP, label-free quantification): 0.05278 log2

Substance: ARHGEF5
Difference (log2), PP1 vs untreated [1, 10]: -1.778 log2
Difference (log2), untreated vs GFP (GFP-14-3-3β; [11]): 3.791 log2

Substance: LGALS1
Difference (log2), PP1 vs untreated [1, 4]: 0.4051 log2
Difference (log2), untreated vs GFP (GFP-14-3-3β; [5]): -0.7235 log2

Substance: SQSTM1
Difference (log2), PP1 vs untreated [1, 12]: -0.4375 log2
Difference (log2), untreated vs GFP (GFP-14-3-3β; [13]): 0.1051 log2

The next lines start with results.

Difference (log2), PP1 vs untreated [1, 4]: 0.4849 log2
Substance: CFL1
Difference (log2), untreated vs GFP (GFP-14-3-3β; [5]): -1.088 log2

Difference (log2), PP1 vs untreated [1, 6]: 1.555
Substance: DDX60
Difference (log2), untreated vs GFP (GFP-14-3-3β; [7]): -0.05993

Difference (log2), PP1 vs untreated [1, 4]: 0.6499 log2
Substance: RNF213
Difference (log2), untreated vs GFP (GFP-14-3-3β; [5]): 0.8982 log2

Difference (log2), PP1 vs untreated [1, 2]: -2.341 log2
Substance: ARHGAP21
Difference (log2), untreated vs GFP (GFP-14-3-3β; [3]): 4.914 log2

Difference (log2), PP1 vs untreated [1, 6]: 1.301
Substance: MGST3
Difference (log2), untreated vs GFP (GFP-14-3-3β; [7]): 0.5005

Difference (log2), PP1 vs untreated [1, 10]: -1.493 log2
Substance: LANCL1
Difference (log2), untreated vs GFP (GFP-14-3-3β; [11]): -0.5316 log2

Difference (log2), PP1 vs untreated [1, 12]: -0.4038 log2
Substance: AHNAK
Difference (log2), untreated vs GFP (GFP-14-3-3β; [13]): -1.21 log2

Difference (log2), PP1 vs untreated [1, 12]: -0.2989 log2
Substance: TIMM50
Difference (log2), untreated vs GFP (GFP-14-3-3β; [13]): 1.085 log2

Difference (log2), PP1 vs untreated [1, 2]: -2.033 log2
Substance: SPTAN1
Difference (log2), untreated vs GFP (GFP-14-3-3β; [3]): 0.5148 log2

Difference (log2), PP1 vs untreated [1, 8]: 0.2022 log2
Substance: EIF4G1
Difference (log2), untreated vs GFP (GFP-14-3-3β; [9]): 0.6525 log2

Difference (log2), PP1 vs untreated [1, 2]: -4.621 log2
Substance: FBXO22
Difference (log2), untreated vs GFP (GFP-14-3-3β; [3]): 0.4281 log2

Difference (log2), PP1 vs untreated [1, 12]: -0.6324 log2
Substance: CAD
Difference (log2), untreated vs GFP (GFP-14-3-3β; [13]): 0.93 log2

Difference (log2), PP1 vs untreated [1, 2]: -3.492 log2
Substance: SRSF1
Difference (log2), untreated vs GFP (GFP-14-3-3β; [3]): 4.313 log2

Difference (log2), PP1 vs untreated [1, 6]: 2.547
Substance: DPYSL3;CRMP1
Difference (log2), untreated vs GFP (GFP-14-3-3β; [7]): -3.981

Difference (log2), PP1 vs untreated [1, 2]: -4.253 log2
Substance: DENND4C
Difference (log2), untreated vs GFP (GFP-14-3-3β; [3]): 3.4091 log2

Difference (log2), PP1 vs untreated [1, 8]: 0.1762 log2
Substance: ITPR3
Difference (log2), untreated vs GFP (GFP-14-3-3β; [9]): -0.007222 log2

Difference (log2), PP1 vs untreated [1, 2]: -2.451 log2
Substance: DYNLL1
Difference (log2), untreated vs GFP (GFP-14-3-3β; [3]): 3.684 log2

Difference (log2), PP1 vs untreated [1, 2]: -4.245 log2
Substance: GAPDH
Difference (log2), untreated vs GFP (GFP-14-3-3β; [3]): 0.2696 log2
